Source: ChEMBL document CHEMBL1131947, “Syntheses and biological activities of bis(3-indolyl)thiazoles, analogues of marine bis(indole)alkaloid nortopsentins” (1999)

Tests used:
Type in all cases: functional
[1] = system: NCI-H23; assay: In vitro growth inhibitory activity against human NCI-H23 cancer cell line
[2] = system: HCT-15; assay: In vitro growth inhibitory activity against human HCT-15 cancer cell line
[3] = system: MOLT-4; assay: In vitro growth inhibitory activity against human MOLT-4 cancer cell line
[4] = system: MCF7; assay: In vitro growth inhibitory activity against human MCF-7 cancer cell line
[5] = system: MDA-N; assay: In vitro growth inhibitory activity against human MDA-N cancer MDA-N cell line
[6] = system: SF-295; assay: In vitro growth inhibitory activity against human SF-295 cancer cell line
[7] = system: K562; assay: In vitro growth inhibitory activity against human K-562 cancer cell line
[8] = system: SR; assay: In vitro growth inhibitory activity against human SR cancer cell line

SMILES	GI50 [1] [µM]	GI50 [2] [µM]	GI50 [3] [µM]	GI50 [4] [µM]	GI50 [5] [µM]	GI50 [6] [µM]	GI50 [7] [µM]	GI50 [8] [µM]
Brc1ccc2c(-c3csc(-c4c[nH]c5ccccc45)n3)c[nH]c2c1	14.5	15.2	19.9	16.7	19.2	14.6	18.8	6.36
Brc1ccc2c(-c3csc(-c4c[nH]c5cc(Br)ccc45)n3)c[nH]c2c1	14.1	8.5	5.8	6.46	2.94	4.81	4.69	3.4
c1ccc2c(-c3csc(-c4c[nH]c5ccccc45)n3)c[nH]c2c1	> 100	> 100	5.31	> 100	83	33.6	3.27	1.77
Brc1ccc2c(-c3nc(-c4c[nH]c5ccccc45)cs3)c[nH]c2c1	25.8	17.8	31.2	27.2	31.5	9.23	5.61	12.2
